Patent publication US11932640B1, “Pyrrolo[3,4-b]quinoline compounds as antibacterial agents” (KING FAISAL UNIVERSITY, priority 2023, dated 2024)
≈ marks a conversion by molar mass, not a printed value. Like-named read-outs stand apart in the source and are kept apart here.

Experiments:
[1] = tested on: Enterococcus faecium ATCC 51559 (VRE resistant); test: Antibacterial MIC, CLSI M07-A10 dilution; type: cell-based
DNA gyrase from E. coli = target: T1, DNA gyrase from E. coli (Escherichia coli, UniProt P0AES4+P0AES6); test: E. coli DNA gyrase inhibition (Inspiralis assay); type: biochemical
T1 construct: purchased Inspiralis
Procedure: Inhibitory potencies were investigated utilizing the Inspiralis assay on streptavidin-coated 96-well microtiter plates. First, the plates were rehydrated with buffer (20 mM Tris-HCl with pH 7.6, 0.01% w/v BSA, 0.05% v/v Tween 20, 137 mM NaCl) and the biotinylated oligonucleotide was then immobilized. After washing off the unbound oligonucleotide, the enzyme test was performed. […] Reaction solutions were incubated at 37° C. for 30 min. After that, the TF buffer (50 mM NaOAc with pH 5.0, 50 mM NaCl and 50 mM MgCl2) was added to terminate the enzymatic reaction. […] The fluorescence was measured with a microplate reader (BioTek Synergy H4, excitation: 485 nm, emission: 535 nm). Initial screening was done at 100 or 10 μM concentration of inhibitors. […] GraphPad Prism software was used to calculate the IC50 values. The result is given as the average value of three independent measurements.

[2] = tested on: Staphylococcus aureus ATCC 29213; test: Antibacterial MIC, CLSI M07-A10 dilution; type: cell-based; details: ATCC29213
[3] = tested on: Staphylococcus epidermidis; test: Antibacterial MIC, CLSI M07-A10 dilution; type: cell-based
[4] = tested on: Pseudomonas aeruginosa MTCC 741; test: Antibacterial MIC, CLSI M07-A10 dilution; type: cell-based; details: MTCC741
[5] = tested on: Mycobacterium tuberculosis H37Rv strain; test: Anti-tubercular alamar blue microplate MIC; type: cell-based; details: 168 h, M. tuberculosis H37Rv, 7 days at 37° C., read-out: anti-mycobacterial activity (MIC)
[6] = tested on: Enterococcus faecium ATCC 35667; test: Antibacterial MIC, CLSI M07-A10 dilution; type: cell-based; details: ATCC35667
[7] = tested on: Staphylococcus aureus ATCC BAA-1556 (MERSA resistant); test: Antibacterial MIC, CLSI M07-A10 dilution; type: cell-based; details: ATCCBAA1556
[8] = tested on: Bacillus subtilis MTCC 441; test: Antibacterial MIC, CLSI M07-A10 dilution; type: cell-based; details: MTCC441
[9] = tested on: Klebsiella pneumonia MTCC 618; test: Antibacterial MIC, CLSI M07-A10 dilution; type: cell-based; details: Klebsiella pneumoniae, MTCC618
[10] = tested on: Escherichia coli MTCC 443; test: Antibacterial MIC, CLSI M07-A10 dilution; type: cell-based; details: MTCC443

T1 sequence (P0AES4 whole entry, one chain of several): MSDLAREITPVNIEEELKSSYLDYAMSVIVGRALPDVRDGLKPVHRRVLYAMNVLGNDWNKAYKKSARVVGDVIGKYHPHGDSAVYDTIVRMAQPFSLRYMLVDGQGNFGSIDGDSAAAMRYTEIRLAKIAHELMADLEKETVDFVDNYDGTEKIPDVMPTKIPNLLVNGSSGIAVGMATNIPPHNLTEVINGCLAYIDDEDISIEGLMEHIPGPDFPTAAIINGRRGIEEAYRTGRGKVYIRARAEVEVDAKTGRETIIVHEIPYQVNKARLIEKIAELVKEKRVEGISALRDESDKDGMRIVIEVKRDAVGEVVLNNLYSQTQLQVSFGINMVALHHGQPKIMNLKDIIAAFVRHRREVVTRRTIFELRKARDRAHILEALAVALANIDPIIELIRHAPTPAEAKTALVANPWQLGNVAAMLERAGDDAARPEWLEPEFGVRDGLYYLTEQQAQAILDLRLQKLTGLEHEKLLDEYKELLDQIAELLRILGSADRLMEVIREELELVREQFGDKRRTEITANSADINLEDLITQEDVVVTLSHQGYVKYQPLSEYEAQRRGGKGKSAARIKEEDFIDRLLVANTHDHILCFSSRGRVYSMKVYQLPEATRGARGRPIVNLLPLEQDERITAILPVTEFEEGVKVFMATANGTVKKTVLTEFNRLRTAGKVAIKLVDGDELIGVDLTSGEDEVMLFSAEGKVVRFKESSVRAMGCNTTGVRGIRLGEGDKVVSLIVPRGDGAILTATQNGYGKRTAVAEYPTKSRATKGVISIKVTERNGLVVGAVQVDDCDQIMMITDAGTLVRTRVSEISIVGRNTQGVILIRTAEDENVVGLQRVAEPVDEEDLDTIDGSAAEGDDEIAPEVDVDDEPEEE

SMILES | MIC [1] [µg/mL] | IC50 (DNA gyrase from E. coli) [nM] | MIC [2] [µg/mL] | MIC [3] [µg/mL] | MIC [4] [µg/mL] | MIC [5] [µg/mL] | MIC [6] [µg/mL] | MIC [7] [µg/mL] | MIC [8] [µg/mL] | MIC ([9]; Klebsiella pneumonia MTCC 618, read-out: MIC) [µg/mL] | MIC [10] [µg/mL] | MIC [9] [µg/mL]
CCCCCN(C)Cc1cc(C(=O)O)ccc1N1C(=O)c2nc3c(NC)cc(F)cc3c(O)c2C1=O [Compound 12, 4-(7-fluoro-9-hydroxy-5-(methylamino)-1,3-dioxo-1,3-dihydro-2H-pyrrolo[3,4-b]quinolin-2-yl)-3-((methyl(pentyl)amino)methyl)benzoic acid] | 0.75 (≈ 1.52 µM) | 16 | 1 (≈ 2.02 µM) | 0.75 (≈ 1.52 µM) | 1 (≈ 2.02 µM) | 4 (≈ 8.09 µM) | 0.5 (≈ 1.01 µM) | 2 (≈ 4.04 µM) | 0.5 (≈ 1.01 µM) | 1 (≈ 2.02 µM) | 4 (≈ 8.09 µM) | 
CN[C@H](CC(C)C)C(=O)N[C@H]1C(=O)N[C@@H](CC(N)=O)C(=O)N[C@H]2C(=O)N[C@H]3C(=O)N[C@H](C(=O)N[C@H](C(=O)O)c4cc(O)cc(O)c4-c4cc3ccc4O)[C@H](O)c3ccc(c(Cl)c3)Oc3cc2cc(c3O[C@@H]2O[C@H](CO)[C@@H](O)[C@H](O)[C@H]2O[C@H]2C[C@](C)(N)[C@H](O)[C@H](C)O2)Oc2ccc(cc2Cl)[C@H]1O [Vancomycin, reference compound] |  |  |  |  |  |  |  |  |  |  |  | > 128
